Measured values taken from paper doi:10.1101/2021.04.08.439011v1 (biorxiv, 2021).

How the values were obtained:
ABL1(Y253F) = ABL1(Y253F) (Homo sapiens, UniProt P00519, Y253F); conditions: phosphorylated; 0.1 µM; binder
ANKK1 = ANKK1 (Homo sapiens, UniProt Q8NFD2); conditions: 0.1 µM; binder
AURKB = AURKB (Homo sapiens, UniProt Q96GD4); conditions: 0.1 µM; binder
CASK = CASK (Homo sapiens, UniProt O14936); conditions: 0.1 µM; binder
CHEK1 = CHEK1 (Homo sapiens, UniProt O14757); conditions: 0.1 µM; binder
CSNK1G2 = CSNK1G2 (Homo sapiens, UniProt P78368); conditions: 0.1 µM; binder
DCAMKL1 = DCAMKL1 (Homo sapiens, UniProt O15075); conditions: 0.1 µM; binder
DYRK2 = DYRK2 (Homo sapiens, UniProt Q92630); conditions: 0.1 µM; binder
EPHB4 = EPHB4 (Homo sapiens, UniProt P54760); conditions: 0.1 µM; binder
EPHB6 = EPHB6 (Homo sapiens, UniProt O15197); conditions: 0.1 µM; binder
FLT3(ITD) = FLT3(ITD) (Homo sapiens, UniProt P36888); conditions: 0.1 µM; binder
FLT3(K663Q) = FLT3(K663Q) (Homo sapiens, UniProt P36888, K663Q); conditions: 0.1 µM; binder
GSK3B = GSK3B (Homo sapiens, UniProt P49841); conditions: 0.1 µM; binder
KIT(D816V) = KIT(D816V) (Homo sapiens, UniProt P10721, D816V); conditions: 0.1 µM; binder
KIT(D816V), sequence (P10721 whole entry D816V): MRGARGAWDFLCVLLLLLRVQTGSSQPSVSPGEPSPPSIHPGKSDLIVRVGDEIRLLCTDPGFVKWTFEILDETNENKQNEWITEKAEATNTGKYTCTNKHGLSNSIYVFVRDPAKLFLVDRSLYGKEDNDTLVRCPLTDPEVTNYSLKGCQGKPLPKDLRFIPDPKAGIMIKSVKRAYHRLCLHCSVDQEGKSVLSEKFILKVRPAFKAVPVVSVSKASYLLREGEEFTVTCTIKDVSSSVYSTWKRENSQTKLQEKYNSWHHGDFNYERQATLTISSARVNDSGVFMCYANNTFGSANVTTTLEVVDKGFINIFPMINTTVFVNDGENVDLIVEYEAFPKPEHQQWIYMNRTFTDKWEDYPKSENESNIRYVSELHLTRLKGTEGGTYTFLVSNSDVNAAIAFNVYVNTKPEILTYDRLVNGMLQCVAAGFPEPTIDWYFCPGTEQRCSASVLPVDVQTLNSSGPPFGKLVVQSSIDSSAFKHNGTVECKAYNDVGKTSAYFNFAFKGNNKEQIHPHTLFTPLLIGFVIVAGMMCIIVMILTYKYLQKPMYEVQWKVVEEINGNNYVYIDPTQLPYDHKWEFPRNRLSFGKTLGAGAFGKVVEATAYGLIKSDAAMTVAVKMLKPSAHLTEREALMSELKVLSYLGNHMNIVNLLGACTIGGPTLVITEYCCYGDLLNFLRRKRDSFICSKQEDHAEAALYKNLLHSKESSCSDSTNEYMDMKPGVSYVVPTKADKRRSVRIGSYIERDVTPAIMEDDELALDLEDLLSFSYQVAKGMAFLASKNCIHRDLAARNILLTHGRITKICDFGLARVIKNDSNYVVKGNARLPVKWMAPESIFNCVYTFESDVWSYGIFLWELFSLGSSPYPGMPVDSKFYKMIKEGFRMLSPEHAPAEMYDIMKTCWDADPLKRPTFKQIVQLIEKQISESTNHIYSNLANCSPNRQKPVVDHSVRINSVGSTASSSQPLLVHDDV

MAK = MAK (Homo sapiens, UniProt P20794); conditions: 0.1 µM; binder
MAK, sequence (P20794 whole entry): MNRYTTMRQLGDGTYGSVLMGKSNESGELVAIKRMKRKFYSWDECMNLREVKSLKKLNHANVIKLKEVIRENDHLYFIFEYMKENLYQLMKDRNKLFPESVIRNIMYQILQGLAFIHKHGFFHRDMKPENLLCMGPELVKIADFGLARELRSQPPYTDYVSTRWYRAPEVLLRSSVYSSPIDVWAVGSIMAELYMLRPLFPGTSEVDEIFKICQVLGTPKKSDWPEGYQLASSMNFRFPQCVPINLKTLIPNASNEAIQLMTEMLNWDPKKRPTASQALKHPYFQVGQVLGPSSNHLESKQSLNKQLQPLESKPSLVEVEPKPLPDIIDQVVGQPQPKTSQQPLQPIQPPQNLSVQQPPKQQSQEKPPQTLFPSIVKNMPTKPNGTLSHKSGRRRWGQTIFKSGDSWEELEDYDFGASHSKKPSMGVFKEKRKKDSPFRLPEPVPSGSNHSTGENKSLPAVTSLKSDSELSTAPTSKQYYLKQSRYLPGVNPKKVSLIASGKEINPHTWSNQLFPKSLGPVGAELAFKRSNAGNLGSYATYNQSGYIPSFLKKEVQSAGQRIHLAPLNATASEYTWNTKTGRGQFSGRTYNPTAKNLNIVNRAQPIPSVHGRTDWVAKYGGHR

MEK4 = MEK4 (Homo sapiens, UniProt P45985); conditions: 0.1 µM; binder
NDR2 = NDR2 (Homo sapiens, UniProt Q9Y2H1); conditions: 0.1 µM; binder
NEK3 = NEK3 (Homo sapiens, UniProt P51956); conditions: 0.1 µM; binder
NEK4 = NEK4 (Homo sapiens, UniProt P51957); conditions: 0.1 µM; binder
NIK = NIK (Homo sapiens, UniProt Q99558); conditions: 0.1 µM; binder
NLK = NLK (Homo sapiens, UniProt Q9UBE8); conditions: 0.1 µM; binder
PHKG2 = PHKG2 (Homo sapiens, UniProt P15735); conditions: 0.1 µM; binder
PIK3CA(H1047Y) = PIK3CA(H1047Y) (Homo sapiens, UniProt P42336, H1047Y); conditions: 0.1 µM; binder
PIK3CA(H1047Y), sequence (P42336 whole entry H1047Y): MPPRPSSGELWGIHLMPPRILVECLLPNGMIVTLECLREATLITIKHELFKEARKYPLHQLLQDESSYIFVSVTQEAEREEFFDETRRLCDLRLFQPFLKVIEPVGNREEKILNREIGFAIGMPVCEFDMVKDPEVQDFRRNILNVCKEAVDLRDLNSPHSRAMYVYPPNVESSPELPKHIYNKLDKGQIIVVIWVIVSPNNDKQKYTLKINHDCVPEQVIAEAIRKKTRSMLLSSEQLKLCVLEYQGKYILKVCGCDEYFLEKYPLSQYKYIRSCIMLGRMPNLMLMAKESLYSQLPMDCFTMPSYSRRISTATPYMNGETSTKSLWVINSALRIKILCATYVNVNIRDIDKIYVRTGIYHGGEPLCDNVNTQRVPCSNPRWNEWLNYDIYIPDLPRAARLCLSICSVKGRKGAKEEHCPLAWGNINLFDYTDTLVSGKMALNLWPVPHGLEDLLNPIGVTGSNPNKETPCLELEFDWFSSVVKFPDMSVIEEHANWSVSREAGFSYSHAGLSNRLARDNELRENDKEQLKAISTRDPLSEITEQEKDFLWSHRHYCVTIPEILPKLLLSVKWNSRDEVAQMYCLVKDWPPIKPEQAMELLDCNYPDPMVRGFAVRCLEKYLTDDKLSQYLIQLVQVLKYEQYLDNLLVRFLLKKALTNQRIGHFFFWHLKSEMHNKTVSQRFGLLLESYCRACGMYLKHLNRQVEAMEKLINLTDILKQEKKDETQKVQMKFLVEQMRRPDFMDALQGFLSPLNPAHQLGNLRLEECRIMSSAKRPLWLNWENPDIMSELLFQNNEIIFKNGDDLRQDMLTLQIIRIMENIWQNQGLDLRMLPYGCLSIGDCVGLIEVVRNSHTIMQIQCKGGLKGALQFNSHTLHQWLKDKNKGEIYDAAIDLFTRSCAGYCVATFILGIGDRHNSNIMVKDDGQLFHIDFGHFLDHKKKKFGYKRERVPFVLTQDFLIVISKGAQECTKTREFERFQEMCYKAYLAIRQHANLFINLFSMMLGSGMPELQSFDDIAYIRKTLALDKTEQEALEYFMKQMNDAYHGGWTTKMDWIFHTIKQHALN

PKN2 = PKN2 (Homo sapiens, UniProt Q16513); conditions: 0.1 µM; binder
PKN2, sequence (Q16513 whole entry): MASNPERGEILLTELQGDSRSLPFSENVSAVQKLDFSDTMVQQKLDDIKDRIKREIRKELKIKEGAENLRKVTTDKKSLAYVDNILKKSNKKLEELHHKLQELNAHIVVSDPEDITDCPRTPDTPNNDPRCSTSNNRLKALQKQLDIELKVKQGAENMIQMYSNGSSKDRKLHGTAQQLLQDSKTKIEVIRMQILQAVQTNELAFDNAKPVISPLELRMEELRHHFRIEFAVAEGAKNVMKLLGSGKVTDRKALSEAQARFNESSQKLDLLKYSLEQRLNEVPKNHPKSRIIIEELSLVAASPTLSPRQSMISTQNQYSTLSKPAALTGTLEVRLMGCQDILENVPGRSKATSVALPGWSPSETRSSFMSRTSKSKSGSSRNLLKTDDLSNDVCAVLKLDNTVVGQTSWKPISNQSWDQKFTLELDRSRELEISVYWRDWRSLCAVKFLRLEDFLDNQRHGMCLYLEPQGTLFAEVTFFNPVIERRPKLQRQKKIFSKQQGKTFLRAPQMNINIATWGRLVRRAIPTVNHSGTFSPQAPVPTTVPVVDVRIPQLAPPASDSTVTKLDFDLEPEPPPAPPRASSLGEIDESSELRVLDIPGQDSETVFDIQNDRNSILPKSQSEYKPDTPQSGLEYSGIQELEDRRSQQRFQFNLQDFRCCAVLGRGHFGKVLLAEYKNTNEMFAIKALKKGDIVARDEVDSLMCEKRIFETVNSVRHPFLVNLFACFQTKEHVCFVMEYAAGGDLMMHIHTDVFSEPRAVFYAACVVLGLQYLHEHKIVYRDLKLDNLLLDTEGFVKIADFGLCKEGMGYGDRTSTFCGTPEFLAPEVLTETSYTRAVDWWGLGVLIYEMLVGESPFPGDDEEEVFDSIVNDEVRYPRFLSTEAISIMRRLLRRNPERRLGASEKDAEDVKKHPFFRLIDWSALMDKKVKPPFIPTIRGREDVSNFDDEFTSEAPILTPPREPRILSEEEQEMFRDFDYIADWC

RAF1 = RAF1 (Homo sapiens, UniProt P04049); conditions: 0.1 µM; binder
RET(V804M) = RET(V804M) (Homo sapiens, UniProt P07949, V804M); conditions: 0.1 µM; binder
RIPK2 = RIPK2 (Homo sapiens, UniProt O43353); conditions: 0.1 µM; binder
ULK3 = ULK3 (Homo sapiens, UniProt Q6PHR2); conditions: 0.1 µM; binder
ULK3, sequence (Q6PHR2 whole entry): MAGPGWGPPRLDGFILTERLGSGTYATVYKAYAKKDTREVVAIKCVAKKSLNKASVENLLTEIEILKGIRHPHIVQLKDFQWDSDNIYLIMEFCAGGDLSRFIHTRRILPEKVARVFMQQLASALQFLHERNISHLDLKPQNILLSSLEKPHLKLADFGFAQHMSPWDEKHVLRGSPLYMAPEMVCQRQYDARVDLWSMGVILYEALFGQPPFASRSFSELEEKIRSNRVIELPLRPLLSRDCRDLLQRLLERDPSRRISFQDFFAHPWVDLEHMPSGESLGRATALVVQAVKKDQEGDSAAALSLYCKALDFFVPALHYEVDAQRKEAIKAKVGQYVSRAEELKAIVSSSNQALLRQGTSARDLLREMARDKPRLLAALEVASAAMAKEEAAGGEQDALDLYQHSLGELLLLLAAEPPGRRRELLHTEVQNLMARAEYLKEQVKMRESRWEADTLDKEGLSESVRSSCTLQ

WEE2 = WEE2 (Homo sapiens, UniProt P0C1S8); conditions: 0.1 µM; binder
WEE2, sequence (P0C1S8 whole entry): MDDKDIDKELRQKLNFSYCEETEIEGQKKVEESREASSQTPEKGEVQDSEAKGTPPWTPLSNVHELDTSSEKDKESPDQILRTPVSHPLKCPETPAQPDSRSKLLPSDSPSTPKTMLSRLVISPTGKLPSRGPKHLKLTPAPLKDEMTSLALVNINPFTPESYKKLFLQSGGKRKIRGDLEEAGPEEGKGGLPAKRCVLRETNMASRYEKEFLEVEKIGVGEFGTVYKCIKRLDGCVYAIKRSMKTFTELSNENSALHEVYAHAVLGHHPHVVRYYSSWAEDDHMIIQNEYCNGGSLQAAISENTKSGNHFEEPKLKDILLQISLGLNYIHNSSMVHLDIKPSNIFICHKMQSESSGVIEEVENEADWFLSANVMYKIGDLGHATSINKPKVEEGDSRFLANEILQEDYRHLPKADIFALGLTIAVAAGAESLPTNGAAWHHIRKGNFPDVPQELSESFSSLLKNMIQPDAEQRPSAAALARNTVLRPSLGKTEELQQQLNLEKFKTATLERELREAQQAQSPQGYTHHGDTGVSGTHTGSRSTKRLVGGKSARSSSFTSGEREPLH

YANK1 = YANK1 (Homo sapiens, UniProt Q8WU08); conditions: 0.1 µM; binder
p38-alpha = p38-alpha (Homo sapiens, UniProt Q16539); conditions: 0.1 µM; binder

AURKB, sequence (Q96GD4 whole entry): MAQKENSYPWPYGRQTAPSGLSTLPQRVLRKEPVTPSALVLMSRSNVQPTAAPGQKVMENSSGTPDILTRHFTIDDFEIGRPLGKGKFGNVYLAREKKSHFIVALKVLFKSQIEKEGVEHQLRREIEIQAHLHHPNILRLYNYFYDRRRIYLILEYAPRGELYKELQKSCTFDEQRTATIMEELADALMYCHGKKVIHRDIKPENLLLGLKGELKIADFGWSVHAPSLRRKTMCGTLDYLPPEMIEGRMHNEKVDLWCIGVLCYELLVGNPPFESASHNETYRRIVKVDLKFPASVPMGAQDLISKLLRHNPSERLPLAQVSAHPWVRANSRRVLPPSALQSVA

## CNc1ncc2cc(-c3ccc(-c4cccc(C)n4)cc3Cl)c(=O)n(C[C@H]3OC[C@H](N)CO3)c2n1 [compound 6, G-5555]
ABL1(Y253F)
  Percent Control: 97%
ANKK1
  Percent Control: 91%
AURKB
  Percent Control: 72%
CASK
  Percent Control: 96%
CHEK1
  Percent Control: 100%
CSNK1G2
  Percent Control: 100%
DCAMKL1
  Percent Control: 80%
DYRK2
  Percent Control: 100%
EPHB4
  Percent Control: 100%
EPHB6
  Percent Control: 61%
FLT3(ITD)
  Percent Control: 100%
FLT3(K663Q)
  Percent Control: 100%
GSK3B
  Percent Control: 97%
KIT(D816V)
  Percent Control: 100%
MAK
  Percent Control: 90%
MEK4
  Percent Control: 49%
NDR2
  Percent Control: 100%
NEK3
  Percent Control: 93%
NEK4
  Percent Control: 100%
NIK
  Percent Control: 100%
NLK
  Percent Control: 73%
PHKG2
  Percent Control: 100%
PIK3CA(H1047Y)
  Percent Control: 73%
PKN2
  Percent Control: 100%
RAF1
  Percent Control: 100%
RET(V804M)
  Percent Control: 86%
RIPK2
  Percent Control: 100%
ULK3
  Percent Control: 90%
WEE2
  Percent Control: 100%
YANK1
  Percent Control: 5.3%
p38-alpha
  Percent Control: 100%
